From patent US9057055B2, “Method of obtaining circulating cancer cell populations” (THE ROYAL INSTITUTION FOR THE ADVANCEMENT OF …, priority 2012, dated 2015) come the findings set out here.

For orientation: IC50 means the concentration at which inhibition is half-maximal.

This assay concerns CCC cells from a breast cancer patient (ER+, PR−, HER2 (2+)). Nature of the assay: Drug-sensitivity assay of cultured CCCs (Presto Blue cell growth/viability). The class given is cell-based, human. As to conditions: cultured CCCs grown in MammoCult media, 10 000 cells per well, 48 hours incubation, Presto Blue fluorescence vs vehicle-treated cells (FIG. 13). On the procedure:
One or more frozen aliquot of RoboSep™ CD45-negative cell population (described in Example I and containing about 5×10^6 nucleated cells and about 1 000 to 3 000 CTCs based on Epimet™-positive staining) is cultured in the conditions described in Example II until approximately 600 000 cells are obtained (usually after 6 subculture steps). This amount of cells is sufficient for testing four distinct compounds in triplicate at four different concentrations using a plating density of approximately 5 000 to 10 000 cells/well in 96-well plates. Cells are plated onto ultra-low attachment microtiter plates at 5 000 to 10 000 cells/well in 125 μL of fresh MammoCult™ media in triplicates. Experimental and control samples (no cells added) are incubated for 24 hours at 37° C. and 5% CO2. […] Fluorescence intensity (FI) is determined using a spectrofluorometer (excitation: 530-560 nm; emission: 590 nm). Dose response curves are calculated as a percentage of untreated controls (FI590 of test agent dilution/FI590 of untreated control)×100 and the LD50 are calculated.
Cells were collected by aphaeresis from a breast cancer patient (ER+, PR−, HER2 (2+)) diagnosed with invasive lobular carcinoma and metastatic spread to bone, liver and the mediastinum. […] Cell growth/viability was assessed using Presto Blue®(Invitrogen). […] Fluorescence values use the excitation and emission peaks for resorufin. […]

As for `CC(=O)O[C@H]1C(=O)[C@@]2(C)[C@H]([C@H](OC(=O)c3ccccc3)[C@]3(O)C[C@H](OC(=O)[C@H](O)[C@@H](NC(=O)c4ccccc4)c4ccccc4)C(C)=C1C3(C)C)[C@]1(OC(C)=O)CO[C@@H]1C[C@@H]2O` [taxol, paclitaxel], the “effect on cell growth” value (increasing concentrations) was “no effect”.

Regarding `COc1cccc2c1C(=O)c1c(O)c3c(c(O)c1C2=O)C[C@@](O)(C(=O)CO)C[C@@H]3O[C@H]1C[C@H](N)[C@@H](O)[C@H](C)O1` [epirubicin], for the setting “Homo sapiens, low attachment 96-well plate, read-out: IC50 of inhibition of cell growth”, the IC50 was approximately 1 µM.
